Earlier results in patent publication US6087327A (priority 1998, dated 2000).

Test system: neurotransmitter release process

Nc1ccncc1 [aminopyridine]
reversal of inhibition produced by botulinum neurotoxin A: more effective
